Experimental data as given in US9447122B2, “Arginase inhibitors and methods of use thereof” (AstraZeneca AB, priority 2010, dated 2016).
Read-outs that look alike come from different tables or passages of the source.

Tests used:
human arginase I = molecular target: T1, human arginase I (Homo sapiens, UniProt P05089); assay: Arginase inhibition, QuantiChrom colorimetric urea assay, IC50 converted to Ki; type: biochemical
T1 sequence (P05089 1-322): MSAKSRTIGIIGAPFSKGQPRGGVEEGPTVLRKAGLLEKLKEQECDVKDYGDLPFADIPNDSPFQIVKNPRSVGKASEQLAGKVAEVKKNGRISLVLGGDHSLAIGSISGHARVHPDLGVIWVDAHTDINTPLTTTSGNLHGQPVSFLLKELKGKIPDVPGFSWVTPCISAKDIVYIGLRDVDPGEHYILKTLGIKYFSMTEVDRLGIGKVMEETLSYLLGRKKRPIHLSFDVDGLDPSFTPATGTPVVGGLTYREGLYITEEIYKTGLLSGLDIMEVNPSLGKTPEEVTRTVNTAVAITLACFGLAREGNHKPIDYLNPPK
Protocol: (§1) For some compounds, their inhibitory potency at pH 7.5 was compared to the inhibitory potency of ABH at pH 7.5.
(§2) Quantitative determination of arginase activity was performed in a 96-well format by a colorimetric method using the QuantiChrom™ Arginase Assay Kit available from BioAssay Systems (Hayward, Calif., Catalog No. DARG-200) according to the manufacturer's protocol. Modifications were made to reagent quantities to suit the assaying of a highly purified sample.
(§3) The intensity of the color was directly proportional to the arginase activity in the sample.
(§4) The rate of urea production was measured in the presence of twelve different concentrations of each potential inhibitor compound. In a typical assay, seven different compounds were tested relative to a control inhibitor (e.g. ABH) against one enzyme (either human ArgI or human ArgII) at a particular pH (either 9.5 or 7.5). The pH of the solution was controlled using an appropriate pH buffering compound at 60 mM concentrations; for example, 60 mM glycine (pH 9.5) or 60 mM HEPES (pH 7.5). The half maximal inhibitory concentration (IC50) was determined by constructing a dose-response curve.

human arginase II = molecular target: T2, human arginase II (Homo sapiens, UniProt P78540); assay: as above; type: biochemical
T2 sequence (P78540 23-354): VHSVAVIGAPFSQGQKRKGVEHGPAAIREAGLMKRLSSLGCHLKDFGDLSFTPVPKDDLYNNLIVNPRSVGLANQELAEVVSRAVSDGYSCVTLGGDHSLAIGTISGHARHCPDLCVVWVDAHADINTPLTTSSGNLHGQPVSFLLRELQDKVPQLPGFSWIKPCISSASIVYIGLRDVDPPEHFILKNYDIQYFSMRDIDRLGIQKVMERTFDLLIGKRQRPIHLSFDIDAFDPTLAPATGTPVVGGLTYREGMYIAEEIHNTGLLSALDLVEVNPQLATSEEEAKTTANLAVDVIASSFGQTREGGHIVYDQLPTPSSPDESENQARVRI
Protocol: as §1, §2, §3, §4

[1] = Table 3, pH 7.5, read-out: human Arginase I pH 7.5, Ki assigned value
[2] = Table 3, pH 9.5, read-out: human Arginase I pH 9.5, Ki assigned value
[3] = Table 3, pH 7.5, read-out: human Arginase II pH 7.5, Ki assigned value
[4] = Table 3, pH 9.5, read-out: human Arginase II pH 9.5, Ki assigned value
[5] = Table 2, pH 7.5, read-out: human arginase I pH 7.5, Ki assigned value
[6] = Table 2, pH 9.5, read-out: human arginase I pH 9.5, Ki assigned value
[7] = Table 2, pH 7.5, read-out: human arginase II pH 7.5, Ki assigned value
[8] = Table 2, pH 9.5, read-out: human arginase II pH 9.5, Ki assigned value

Row | Structure (SMILES) | Ki (human arginase I; [1]) | Ki (human arginase I; [2]) | Ki (human arginase II; [3]) | Ki (human arginase II; [4]) | Ki (human arginase I; [5]) | Ki (human arginase I; [6]) | Ki (human arginase II; [7]) | Ki (human arginase II; [8])
1 | NC(CCCCB(O)O)(CCCN1CCN(Cc2cccc(F)c2F)CC1)C(=O)O (stereo not drawn) [Example 7] | < 10 nM | 11 to 50 nM | 11 to 50 nM | 51 to 100 nM |  |  |  | 
2 | NC(CCCCB(O)O)(CCCN1CCN(Cc2cccc(C(F)(F)F)c2)CC1)C(=O)O (stereo not drawn) [Example 9] | < 10 nM | 51 to 100 nM | 11 to 50 nM | 11 to 50 nM |  |  |  | 
3 | NC(CCCCB(O)O)(CCCN1CCN(Cc2ccc(F)cc2)CC1)C(=O)O (stereo not drawn) [Example 11] |  |  |  |  | < 10 nM | 11 to 50 nM | 11 to 50 nM | 11 to 50 nM
4 | NC(CCCCB(O)O)(CCCN1CCN(CCc2ccccc2)CC1)C(=O)O (stereo not drawn) [Example 14] | < 10 nM | 11 to 50 nM | < 10 nM | 11 to 50 nM |  |  |  | 
5 | NC(CCCCB(O)O)(CCN1CCN(Cc2ccc(Cl)c(Cl)c2)CC1)C(=O)O (stereo not drawn) [Example 15] | 101 to 250 nM | 101 to 250 nM | > 400 nM | 51 to 100 nM |  |  |  | 
6 | NC(CCCCB(O)O)(CCCN1CCN(c2ccc(Cl)c(Cl)c2)CC1)C(=O)O (stereo not drawn) [Example 16] | 11 to 50 nM | 51 to 100 nM | 51 to 100 nM | 11 to 50 nM |  |  |  | 
7 | NC(CCCCB(O)O)(CCCN1CCCCC1c1ccc(F)cc1)C(=O)O (stereo not drawn) [Example 17] |  |  |  |  | < 10 nM | 11 to 50 nM | 101 to 250 nM | 11 to 50 nM
8 | NC(CCCCB(O)O)(CCC1CCCCN1Cc1cc(F)cc(F)c1)C(=O)O (stereo not drawn) [Example 20] | 11 to 50 nM | 11 to 50 nM | 101 to 250 nM | 101 to 250 nM |  |  |  | 
9 | NC(CCCCB(O)O)(CCC1CCCCN1Cc1ccc(F)c(F)c1)C(=O)O (stereo not drawn) [Example 21] | 11 to 50 nM | 11 to 50 nM | 51 to 100 nM | 51 to 100 nM |  |  |  | 
10 | NC(CCCCB(O)O)(CCCN1CCCC(c2ccccc2)C1)C(=O)O (stereo not drawn) [Example 26, 2-amino-6-borono-2-(3-(3-phenylpiperidin-1-yl)propyl)hexanoic acid] | < 10 nM | 11 to 50 nM | < 10 nM | 11 to 50 nM |  |  |  | 
11 | NC(CCCCB(O)O)(CCCN1CCC(Cc2ccc(F)c(F)c2)CC1)C(=O)O (stereo not drawn) [Example 28] |  |  |  |  | < 10 nM | < 10 nM | 51 to 100 nM | < 10 nM
12 | NC(CCCCB(O)O)(CCCN1CCC2(CC1)C(=O)NCN2c1ccccc1)C(=O)O (stereo not drawn) [Example 31] | < 10 nM | 11 to 50 nM | < 10 nM | 51 to 100 nM |  |  |  | 
13 | NC(CCCCB(O)O)(CCCN1CCC(Oc2ccc(C(F)(F)F)cc2)CC1)C(=O)O (stereo not drawn) [Example 34] | < 10 nM | < 10 nM | < 10 nM | 11 to 50 nM |  |  |  | 
14 | COc1ccc(C2CCN(CCCC(N)(CCCCB(O)O)C(=O)O)CC2)cc1 (stereo not drawn) [Example 37] | < 10 nM | < 10 nM | < 10 nM | 11 to 50 nM |  |  |  | 
15 | NC(CCCCB(O)O)(CCCN1CCC(O)(Cc2ccccc2)CC1)C(=O)O (stereo not drawn) [Example 39] | < 10 nM | < 10 nM | < 10 nM | 11 to 50 nM |  |  |  | 
16 | NC(CCCCB(O)O)(CCCN1CCC(O)(c2ccc(Cl)cc2)CC1)C(=O)O (stereo not drawn) [Example 40] | < 10 nM | < 10 nM | < 10 nM | 11 to 50 nM |  |  |  | 
17 | NC(CCCCB(O)O)(CCCN1CCN(c2ccc(C(F)(F)F)cn2)CC1)C(=O)O (stereo not drawn) [Example 41] | < 10 nM | 11 to 50 nM | < 10 nM | 11 to 50 nM |  |  |  | 
18 | NC(CCCCB(O)O)(CCCN1CCC(NC(=O)c2ccccc2)CC1)C(=O)O (stereo not drawn) [Example 44] | < 10 nM | 11 to 50 nM | < 10 nM | 11 to 50 nM |  |  |  | 
19 | NC(CCCCB(O)O)(CCCN1CCc2ccccc2C1)C(=O)O (stereo not drawn) [Example 45] | < 10 nM | 11 to 50 nM | < 10 nM | 11 to 50 nM |  |  |  | 
20 | CN1CCN(CCCC(N)(CCCCB(O)O)C(=O)O)C(c2ccccc2)C1 (stereo not drawn) [Example 46] | 11 to 50 nM | 11 to 50 nM | 11 to 50 nM | < 10 nM |  |  |  | 
21 | NC(CCCCB(O)O)(CCCN1CCCC1c1ccccc1C(F)(F)F)C(=O)O (stereo not drawn) [Example 51] | 11 to 50 nM | 51 to 100 nM | 11 to 50 nM | 101 to 250 nM |  |  |  | 
